Measured values published in US12145987B2, “Method for depleting cytotoxic T cells using an anti-LAG-3 antibody composition” (Daiichi Sankyo Company, Limited, priority 2017, dated 2024).

Experiments:
Type in all cases: cell-based
[1] = tested on: perforin positive CD8 T cells; assay: Perforin positive CD8 T cell number after CD3/CD28 stimulation of human PBMCs for 4 days, flow cytometry; conditions: hLA212_H4/L2 10 μg/mL, tacrolimus 10 nM, PBMCs of two donors
Method: (§1) PBMCs were separated from human peripheral blood by Ficoll centrifugation and added to a 96-well U-bottom microplate in an amount of 4×10^5 cells/well. Human IL-2 (PeproTech, Inc., final concentration: 100 ng/mL) and Dynabeads Human T-Activator CD3/CD28 (Life Technologies Corp., 4×105 beads/well) were added thereto, and T cells were activated by culture for 4 days. The obtained cells were recovered, suspended in a FACS buffer (PBS, 0.1% BSA, and 0.1% sodium azide), and then reacted with Human BD Fc Block (Becton, Dickinson and Company) at room temperature for 10 minutes. Subsequently, the cell surface was stained by reaction at 4° C. for 30 minutes with fluorescently labeled antibodies diluted with a FACS buffer containing a LIVE/DEAD Fixable Dead Cell Stain Kit-near-IR fluorescent reactive dye (manufactured by Invitrogen Corp.), followed by washing with a FACS buffer. […] The data was analyzed using FlowJo (manufactured by Tree Star Inc). After removal of the LIVE/DEAD Fixable Dead Cell Stain Kit-near-IR fluorescent reactive dye-positive dead cells by gating, only the living cells were analyzed by further gating CD3 positive and CD8 positive CD8 T cells. […]

T cells (total number) = assay: Total T cell number after CD3/CD28 stimulation of human PBMCs for 4 days, flow cytometry; conditions: hLA212_H4/L2 10 μg/mL, tacrolimus 10 nM, dexamethasone 1 μM, PBMCs of two donors
Method: as §1

CD28 negative T cells = assay: CD28 negative T cell number after CD3/CD28 stimulation of human PBMCs for 4 days, flow cytometry; conditions: tacrolimus 10 nM, dexamethasone 1 μM, two donors
Method: (§2) PBMCs were separated from human peripheral blood by Ficoll centrifugation and added to a 96-well U-bottom microplate in an amount of 4×10^5 cells/well. Human IL-2 (PeproTech, Inc., final concentration: 100 ng/mL) and Dynabeads Human T-Activator CD3/CD28 (Life Technologies Corp., 4×105 beads/well) were added thereto, and T cells were activated by culture for 4 days. The obtained cells were recovered, suspended in a FACS buffer (PBS, 0.1% BSA, and 0.1% sodium azide), and then reacted with Human BD Fc Block (Becton, Dickinson and Company) at room temperature for 10 minutes. […] The data was analyzed using FlowJo (manufactured by Tree Star Inc). After removal of the LIVE/DEAD Fixable Dead Cell Stain Kit-near-IR fluorescent reactive dye-positive dead cells by gating, only the living cells were analyzed by further gating CD3 positive and CD8 positive CD8 T cells.
(§3) The effect of the humanized anti-human LAG-3 antibody hLA212_H4/L2, the calcineurin inhibitor tacrolimus, and the corticosteroid dexamethasone on CD28 negative T cells and CD57 positive T cells was investigated in the assay system of Example 13. […] Out of the living cells, a CD3 positive and CD8 negative fraction and a CD3 positive and CD8 positive fraction were analyzed as CD4 T cells and CD8 T cells, respectively.

CD57 positive T cells = assay: CD57 positive T cell number after CD3/CD28 stimulation of human PBMCs for 4 days, flow cytometry; conditions: tacrolimus 10 nM, dexamethasone 1 μM, two donors
Method: as §2, §3

[2] = hLA212_H4/L2 10, 1, 0.1 μg/mL (effect concentration dependent)

C=CC[C@@H]1/C=C(\C)C[C@H](C)C[C@H](OC)[C@H]2O[C@@](O)(C(=O)C(=O)N3CCCC[C@H]3C(=O)O[C@H](/C(C)=C/[C@@H]3CC[C@@H](O)[C@H](OC)C3)[C@H](C)[C@@H](O)CC1=O)[C@H](C)C[C@@H]2OC [tacrolimus, reference compound]
number of perforin positive CD8 T cells, compared with the control [1]: rarely different from those of the control | total number of T cells after culture, compared with the control (T cells (total number)): slightly reduced | number of CD28 negative CD8 T cells (CD28 negative T cells; [2]): evident reduction in the number of CD28 negative CD8 T cells as found for the LAG-3 antibody was not observed | number of CD28 negative CD4 T cells (CD28 negative T cells; hLA212_H4/L2 10, 1, 0.1 μg/mL): hardly effective or rather increased the cell number | number of CD57 positive CD8 T cells (CD57 positive T cells; [2]): evident reduction in the number of CD57 positive CD8 T cells as found for the LAG-3 antibody was not observed | number of CD57 positive CD4 T cells (CD57 positive T cells; hLA212_H4/L2 10, 1, 0.1 μg/mL): such an effect was hardly observed
